Measurements: patent US20080194678A1, “Process To Obtain Synthetic And Semi-Synthetic Lignan Derivatives, Their Antiparasitic Activities And Corresponding Pharmaceutical Formulations, Including The Therapeutic Method Using Said Lignan For The Treatment Of Parasitosis” (Fundacao de Amparo a Pesquissa do Estado de Aao Pa, priority 2005, published 2008)
Entries after “also recorded” stand apart in the source; their conditions may differ. Read-outs that look alike come from different tables or passages of the source.

Legend:
Schistosoma [1] = assay: Schistosomicidal activity (test not specified)
S. mansoni [2] = assay: Couples of S. mansoni recovered from infected BALB/c mice by perfusion after treatment; type: in vivo, Schistosoma mansoni; conditions: for number of S. mansoni recovered / couples of S. mansoni recovered in the treated group / efficacy: BALB/c mice; for number of S. mansoni recovered / efficacy: single dose 10 mg/kg after 40 days of infection; for couples of S. mansoni recovered in the treated group: single dose 10 mg/kg after 40 days of infection (approx. 200 cercariae), untreated group 40 couples/animal; for reduction of the viable worms: 10 mg/kg of weight, after 40 days of infection with S. mansoni
Experimental: FIG. 8—graph with the number of recovered worms vs. effect of the drug. Couples of S. mansoni recovered from BALB/c mice by perfusion of the door-kidney system. Five mice, after 40 days of infection (approximately 200 cercariae), were submitted to test with a single dose of the drug dinitrocubebine (10 mg/kg of weight). In the group untreated (negative control treated only with a 5% dimethyl sulfoxide solution in water), 40 couples/animal were recovered. In the treated group, only 5 couples were recovered. […] FIG. 9—graph with the number of recovered worms vs. effect of the drug. Couples of S. mansoni recovered from BALB/c mice by perfusion of the door-kidney system. Five mice, after 40 days of infection (approximately 200 cercariae), were submitted to test with a single dose of the drug methylcubebin (10 mg/kg of weight). In the untreated group (negative control treated only with a 5% dimethyl sulfoxide solution in water), 40 couples/animal were recovered. In the treated group, only five couples were recovered. […] In in vivo tests, the drugs (−)—O-methylcubebin (6) and (−)-6,6′-dinitronokinin (8) presented results similar to the obtained with praziquantel, in the same concentration (10 mg/kg of weight), i.e. reduction of approximately 90% of the viable worms, after 40 days of infection with S. mansoni. […] Such a result was extremely important and promising, since the drug was given to the parasites when they were still maturing and had not yet reached the evolutive form of adult worms. […] Thus, the developed medicine may be used not only as a healing drug, but also as a prophylactic drug in the combat against schistosomosis. Another advantage relates to the low toxicity of these substances for use in antiparasitic therapeutics, since many of these derivatives have hepatic-protecting and antioxidant action. Thus, the use of these lignans certainly offers higher safety for therapeutic use than praziquantel. So, the use of these substances in medicines for longer treatments is safer than with praziquantel and they have nearly no significant side effects. Finally, this group of substances is obtained from natural sources, which is not applicable to praziquantel.

[3] = test system: Schistosoma mansoni (evolutive stage of adult worm); assay: In vitro culture of Schistosoma mansoni adult worm couples (motility, separation, egglaying, tegument, death); type: cell-based; conditions: for time to considerable increase in the motility of parasite couples / time to separation of parasite couples: 14.0 and 7.0 μg/ml; for change in tegument or death of parasites: worms analyzed for 5 days
Experimental: FIG. 1—effect of the drugs (−)-hinokinin (3) and (−)-O—(N,N-dimethylamino-ethyl) cubebin (4), in concentrations of 14, 7.5 and 3.5 μg/ml, under the parasite Schistosoma mansoni's egglaying during 5 days of culture.
FIG. 2—effect of the drug (−)-6,6-dinitroinokinin (8), in concentrations of 14, 7.5 and 3.5 μg/ml, under the parasite Schistosoma mansoni's egglaying during 5 days of culture.
FIG. 3—effect of the drug (−)—O-methylcubebin (5), in concentrations of 14, 7.5 and 3.5 μg/ml, under the parasite Schistosoma mansoni's egglaying during 5 days of culture
FIG. 4—parasite Schistosoma mansoni (evolutive stage of adult worm) cultivated in vitro in RPMI 1640 medium, in 5% CO2 atmosphere at 37° C. for 24 hours, in the absence and presence of the drug (−)-6,6-dinitroinokinin (8). A and C, male and female parasites, respectively, cultivated in the absence of substances. B and D, male and female parasite, respectively, cultivated in the presence of the Drug (the same effect was noticed in concentrations of 14.0, 7.0 and 3.0 μg/ml) Inverted light microscope, 4× magnification.
Two hours after the addition of substances 3 and 5 in concentrations of 14.0 and 7.0 μg/ml, considerable increase in the motility of parasite couples was noticed, ending up with their separation after 18 hours.

[4] = test system: Schistosoma mansoni (evolutive stage of adult worm); assay: as above; type: cell-based; conditions: 14.0, 7.0 and 3.5 μg/ml
S. mansoni [5] = assay: Couples of S. mansoni recovered from infected BALB/c mice by perfusion after treatment; type: in vivo, Schistosoma mansoni; conditions: after 7 and 21 days of infection
Schistosoma [6] = conditions: cited from earlier work; for side effects: patients
S. mansoni [7] = conditions: vertebrate host; cited from earlier work
[8] = 3.5 μg/ml, after 24 hours of culture

O=[N+]([O-])c1cc2c(cc1CC1COC(O)C1Cc1cc3c(cc1[N+](=O)[O-])OCO3)OCO2 (single isomer, unassigned; (-)) [8a, (−)-6,6′-dinitrocubebin]
schistosomicidal activity (Schistosoma [1]): significant schistosomicidal activity
number of S. mansoni recovered (S. mansoni [2]): about 10%
couples of S. mansoni recovered in the treated group (S. mansoni [2]): 5 couples

CC(=O)OC1OC[C@H](Cc2ccc3c(c2)OCO3)[C@H]1Cc1ccc2c(c1)OCO2 (single isomer, unassigned; (-)) [compound 4, (−)-O-acetylcubebin]
schistosomicidal activity (Schistosoma [1]): significant schistosomicidal activity

CN(C)CCOC1OCC(Cc2ccc3c(c2)OCO3)C1Cc1ccc2c(c1)OCO2 (single isomer, unassigned; (-)) [compound 5, (−)-O—(N,N-dimethylaminoethyl)-cubebin]
time to increase in the motility of couples ([3]; 3.5 μg/ml): 24 h
time to separation of the couples ([3]; 3.5 μg/ml): 36 h
effect on egglaying [3, 8]: considerable reduction of egglaying
time to considerable increase in the motility of parasite couples [3]: Two
time to separation of parasite couples [3]: 18 h
change in tegument or death of parasites ([3]; 14.0, 7.0 and 3.5 μg/ml): no apparent change in tegument or death of parasites
schistosomicidal activity (Schistosoma [1]): significant schistosomicidal activity

COC1OC[C@@H](Cc2ccc3c(c2)OCO3)[C@@H]1Cc1ccc2c(c1)OCO2 (single isomer, unassigned; (-)) [compound 6, (−)-O-methylcubebin]
increase in motility of couples ([3]; 14, 7.5 and 3.5 μg/ml): increased the motility of couples after the first hour of culture
time to separation of the parasites ([3]; 14, 7.5 and 3.5 μg/ml): ≤ 12 h
schistosomicidal activity (Schistosoma [1]): significant schistosomicidal activity
reduction of the viable worms (S. mansoni [2]): approximately 90%
efficacy (S. mansoni [2]): around 93%
number of S. mansoni recovered (S. mansoni [2]): about 10%
couples of S. mansoni recovered in the treated group (S. mansoni [2]): five
tegument (cutaneous) lesions in male and female parasites [4]: did not produce cutaneous lesions
reduction of the viable worms (S. mansoni [5]; two doses 10 mg/kg of weight): approximately 90%
action on intermediary forms of the parasite (schistosomulus) in the vertebrate host (S. mansoni [5]; two doses 10 mg/kg): also acts on the intermediary forms of the parasite (schistosomulus)

c1ccc(COC2OC[C@@H](Cc3ccc4c(c3)OCO4)[C@@H]2Cc2ccc3c(c2)OCO3)cc1 (single isomer, unassigned; (-)) [compound 7, (−)-O-benzylcubebin]
schistosomicidal activity (Schistosoma [1]): significant schistosomicidal activity

Nc1cc2c(cc1CC1COC(=O)C1Cc1cc3c(cc1N)OCO3)OCO2 (single isomer, unassigned; (-)) [compound 9, (−)-6,6′-diaminonokinin]
schistosomicidal activity (Schistosoma [1]): significant schistosomicidal activity

COc1ccc([C@H]2O[C@@H](c3ccc(OC)c(OC)c3)[C@H](C)[C@@H]2C)cc1OC [14b, galgravin]
schistosomicidal activity (Schistosoma [1]): significant schistosomicidal activity

COc1cc([C@H]2O[C@@H](c3ccc(OC)c(OC)c3)[C@H](C)[C@@H]2C)ccc1O [14c, nectandrin A]
schistosomicidal activity (Schistosoma [1]): significant schistosomicidal activity

COc1cc([C@H]2O[C@@H](c3ccc(O)c(OC)c3)[C@H](C)[C@@H]2C)ccc1O [14d, nectandrin B]
schistosomicidal activity (Schistosoma [1]): significant schistosomicidal activity

COc1ccc([C@H]2O[C@@H](c3ccc(OC)c(OC)c3)[C@H](C)[C@H]2C)cc1OC [15b, veragensin]
schistosomicidal activity (Schistosoma [1]): significant schistosomicidal activity

COc1ccc([C@H]2O[C@H](c3ccc(OC)c(OC)c3)[C@@H](C)[C@H]2C)cc1OC [16a, ganschisandrin]
schistosomicidal activity (Schistosoma [1]): significant schistosomicidal activity

CC(C)NCC1CCc2cc(CO)c([N+](=O)[O-])cc2N1 (stereo not shown) [Oxamniquin, oxamniquin]
cases in which the drug is effective (Schistosoma [6]; adults): about 80%
cases in which the drug is effective (Schistosoma [6]; children): ~65%
side effects (Schistosoma [6]): cephalgia, sleepiness, nausea, tremors and rarely convulsions

COc1ccc(C[C@H]2C(=O)OC[C@@H]2Cc2ccc3c(c2)OCO3)cc1OC [compound 1, (−)-methylpluviatolide]
schistosomicidal activity (Schistosoma [1]): significant schistosomicidal activity

O[C@H]1OC[C@H](Cc2ccc3c(c2)OCO3)[C@H]1Cc1ccc2c(c1)OCO2 [compound 2, (−)-cubebin]
schistosomicidal activity (Schistosoma [1]): significant schistosomicidal activity

O=C1OC[C@H](Cc2ccc3c(c2)OCO3)[C@H]1Cc1ccc2c(c1)OCO2 [compound 3, (−)-hinokinin]
time to increase in the motility of couples ([3]; 3.5 μg/ml): 24 h
time to separation of the couples ([3]; 3.5 μg/ml): 36 h
effect on egglaying [3, 8]: considerable reduction of egglaying
time to considerable increase in the motility of parasite couples [3]: Two
time to separation of parasite couples [3]: 18 h
change in tegument or death of parasites ([3]; 14.0, 7.0 and 3.5 μg/ml): no apparent change in tegument or death of parasites
schistosomicidal activity (Schistosoma [1]): significant schistosomicidal activity

O=C1OC[C@H](Cc2cc3c(cc2[N+](=O)[O-])OCO3)[C@H]1Cc1cc2c(cc1[N+](=O)[O-])OCO2 [compound 8, (−)-6,6′-dinitroinokinin]
time to death of parasites ([3]; 3.5 μg/ml): 36 h
time to death of parasites ([3]; 7.0 μg/ml): 24 h
time to death of parasites ([3]; 14.0 μg/ml): 20 h
death of the parasites ([3]; 14.0, 7.0 and 3.5 μg/ml): causing their death
increase in motility of couples ([3]; 14, 7.5 and 3.5 μg/ml): considerable increase in motility in the first hour of culture
time to separation of the parasites ([3]; 14, 7.5 and 3.5 μg/ml): 12 h
effect on egglaying ([3]; 14, 7.5 and 3.5 μg/ml, after separation): interruption in egglaying
schistosomicidal activity (Schistosoma [1]): significant schistosomicidal activity
reduction of the viable worms (S. mansoni [2]): approximately 90%
efficacy (S. mansoni [2]): around 90%
tegument (cutaneous) lesions in male and female parasites [4]: strong tegument lesions in both male and female parasites; also recorded: very evident tegument lesions

COc1cc(OC)c([C@H]2[C@H](C)[C@@H](c3cc(OC)c(OC)cc3OC)O[C@H]2C)cc1OC [compound 17, magnosalicin]
schistosomicidal activity (Schistosoma [1]): significant schistosomicidal activity

O=C(C1CCCCC1)N1CC(=O)N2CCc3ccccc3C2C1 (stereo not shown) [praziquantel]
side effects (Schistosoma [6]): abdominal pain, diarrhea, fever and urticaria-shaped reactions
evolutive form of S. mansoni acted on (S. mansoni [7]): acts only on the evolutive form of adult worms
reduction of the viable worms (S. mansoni [2]): approximately 90%

aristolignine [15c]
schistosomicidal activity (Schistosoma [1]): significant schistosomicidal activity

caloptin [15a]
schistosomicidal activity (Schistosoma [1]): significant schistosomicidal activity

machilin [14a]
schistosomicidal activity (Schistosoma [1]): significant schistosomicidal activity

morelensine [1a]
schistosomicidal activity (Schistosoma [1]): significant schistosomicidal activity

nectandrin D [16b]
schistosomicidal activity (Schistosoma [1]): significant schistosomicidal activity

nectandrin E [16c]
schistosomicidal activity (Schistosoma [1]): significant schistosomicidal activity
